Results: publication PMC5563081, “Modulating Protein-Protein Interactions of the Mitotic Polo-like Kinases to Target Mutant KRAS” (Cell Chemical Biology, 2017)
Where “and” joins values, the source holds several entries; their conditions need not be identical. Equal entries are not always repeated. Where two headings read alike, the source gives them in different places.

Experiments:
HeLa cells = assay: Mitotic index assay in HeLa cells; assay type: cell-based, human; details: for EC50: Homo sapiens
Experimental: Cells were plated at 10 000/well in 96-well plates and incubated overnight. The following day compound stocks in DMSO were diluted in medium then added to cells with a maximum final DMSO concentration on cells of 0.2%. […] Cells were permeabilised with 0.1% Triton X-100 then incubated with anti-phospho-histone H3 (Ser10) antibody (Abcam ab5176). The cells were washed with PBS then incubated with AlexaFluor 488 labelled goat anti-rabbit IgG (Invitrogen A11034) in the presence of 4ug/ml Hoechst 33342 (Invitrogen H3570). Cells were washed in PBS then imaged on an Arrayscan VTi HCS instrument (Thermo Fisher) using the Target Activation V4 Bioapplication. A user-defined threshold was applied to identify mitotic cells based on the intensity of phospho-histone H3 staining.

PBD domain of human PLK2 = target: T1, PBD domain of human PLK2 (Homo sapiens, UniProt Q9NYY3); assay: Fluorescence polarisation (FP) assay, PLK2 PBD; assay type: binding
T1 construct: For FP assays using PLK2 PBD (aa356-681), the same procedure was applied; GST (N, cleaved yes); made in house; host or cells: E. coli C41
T1 sequence (Q9NYY3 356-681): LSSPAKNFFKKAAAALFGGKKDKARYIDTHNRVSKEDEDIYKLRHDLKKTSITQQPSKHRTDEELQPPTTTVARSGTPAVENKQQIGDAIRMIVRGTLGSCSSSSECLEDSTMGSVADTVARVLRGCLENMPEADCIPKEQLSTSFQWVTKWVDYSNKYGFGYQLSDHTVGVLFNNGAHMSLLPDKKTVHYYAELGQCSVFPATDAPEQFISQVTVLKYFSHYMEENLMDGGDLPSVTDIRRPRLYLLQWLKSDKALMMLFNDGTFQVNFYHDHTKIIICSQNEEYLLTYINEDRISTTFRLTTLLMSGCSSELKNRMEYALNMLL
Experimental: Final concentrations of assay components used in binding assays were as follows: TAMRA-labelled consensus PLK1 PBD binding phosphopeptide, 5-TAMRA-MAGPMQS(pThreonine)PLMGAKK-acid 10nM; PLK1 PBD (aa345-603) 84nM (2.5ng/μl). Assays were carried out in PBS (pH 7.4) plus 0.03% tween. DMSO controls were run alongside all experimental compounds and % inhibition normalised to these controls. Compounds were titrated 2 fold from a top concentration of 250μM giving a maximum final concentration of DMSO in the assay of 0.25%; however the assay can tolerate DMSO up to 5%. Compound and PBD protein were incubated together at 22°C for 1 hour prior to addition of the TAMRA labelled binding phosphopeptide. The total assay volume per well was 45μl. All experiments were performed in NBS black 384-well microtiter plates (Corning). Fluorescence Polarisation (FP) was read using a BMG PheraStar plate reader with a 540/590/590nm FP module and unbound 10nm TAMRA-labelled peptide set to a FP value of 35mP.
For FP assays using PLK2 PBD (aa356-681), the same procedure was applied except that TAMRA-MAGPMQTS(pThreonine)PKNGAKK was used as the consensus binding phosphopeptide.

EIF2AK2 = target: T2, EIF2AK2 (Homo sapiens, UniProt P19525); assay: DiscoverX KINOMEscan; assay type: binding; details: read-out: % Control
T2 construct: purchased DiscoverX KINOMEscan
T2 sequence (P19525 whole entry): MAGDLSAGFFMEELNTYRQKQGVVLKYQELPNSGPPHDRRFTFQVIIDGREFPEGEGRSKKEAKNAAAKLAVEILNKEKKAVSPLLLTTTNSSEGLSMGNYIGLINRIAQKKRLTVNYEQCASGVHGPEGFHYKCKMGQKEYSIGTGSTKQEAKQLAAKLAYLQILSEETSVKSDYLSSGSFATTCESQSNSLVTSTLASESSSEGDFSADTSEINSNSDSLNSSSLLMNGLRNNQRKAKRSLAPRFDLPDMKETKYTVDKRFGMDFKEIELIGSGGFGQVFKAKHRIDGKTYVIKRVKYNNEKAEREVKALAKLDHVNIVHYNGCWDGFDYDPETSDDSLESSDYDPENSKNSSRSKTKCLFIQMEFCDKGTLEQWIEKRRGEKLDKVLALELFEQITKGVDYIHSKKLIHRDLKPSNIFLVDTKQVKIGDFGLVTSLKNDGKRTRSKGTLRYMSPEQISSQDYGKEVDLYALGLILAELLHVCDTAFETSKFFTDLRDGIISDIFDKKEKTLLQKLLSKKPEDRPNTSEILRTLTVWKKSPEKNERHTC
Experimental: (§1) A panel of 55 proteins (comprising 51 human kinases structurally or functionally related to the PLKs, plus the kinase catalytic domains of PLK1, PLK2, PLK3 and PLK4) were selected for testing by DiscoverX using the KINOMEscan assay platform. Compounds were supplied as 40x DMSO stocks and were tested at a final concentration of 50μM for Poloppin and 5μM for Poloppin-II. Binding interactions were reported as percentage of control where lower numbers indicate stronger binding. A cut-off of <35% was applied to report significant binding.

GSG2 = target: T3, GSG2 (Homo sapiens, UniProt Q8TF76); assay: DiscoverX KINOMEscan; assay type: binding; details: read-out: % Control
T3 construct: purchased DiscoverX KINOMEscan
T3 sequence (Q8TF76 whole entry): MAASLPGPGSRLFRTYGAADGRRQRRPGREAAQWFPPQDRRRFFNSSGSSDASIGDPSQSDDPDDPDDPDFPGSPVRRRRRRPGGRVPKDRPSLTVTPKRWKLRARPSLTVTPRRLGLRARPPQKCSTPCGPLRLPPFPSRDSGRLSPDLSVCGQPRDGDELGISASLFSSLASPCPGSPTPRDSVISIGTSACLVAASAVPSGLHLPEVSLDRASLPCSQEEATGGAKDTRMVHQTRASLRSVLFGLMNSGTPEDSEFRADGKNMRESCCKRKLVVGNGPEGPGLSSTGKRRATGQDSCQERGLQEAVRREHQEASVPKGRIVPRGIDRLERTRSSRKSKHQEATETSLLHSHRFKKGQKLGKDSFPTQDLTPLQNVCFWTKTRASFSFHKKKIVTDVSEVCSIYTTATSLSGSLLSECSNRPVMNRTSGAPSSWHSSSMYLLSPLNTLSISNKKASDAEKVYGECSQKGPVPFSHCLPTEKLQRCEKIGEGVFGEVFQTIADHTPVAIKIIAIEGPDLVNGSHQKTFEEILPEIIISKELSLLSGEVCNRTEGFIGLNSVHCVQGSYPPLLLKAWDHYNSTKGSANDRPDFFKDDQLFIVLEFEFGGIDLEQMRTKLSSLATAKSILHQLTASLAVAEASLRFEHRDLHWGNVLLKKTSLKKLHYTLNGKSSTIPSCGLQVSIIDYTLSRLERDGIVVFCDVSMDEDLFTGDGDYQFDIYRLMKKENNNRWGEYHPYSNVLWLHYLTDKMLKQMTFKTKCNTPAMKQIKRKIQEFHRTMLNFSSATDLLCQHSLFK
Experimental: as §1

[1] = system: kinase catalytic domains of PLK1, PLK2, PLK3, PLK4 and 51 other protein kinases; assay: DiscoverX KINOMEscan panel of 55 kinases (statements in words); assay type: binding, human; details: cut-off <35% of control
Experimental: as §1

SW48 KRAS G12D cells = assay: Cell viability (SRB), SW48 KRAS G12D; assay type: cell-based; details: Homo sapiens
Experimental: SW48 Parental, SW48 G12D, Panc-1, HPAF-II, Panc 02.03 and Panc 05.04 cell lines were seeded overnight at 5000 cells per well in a 96 well plate in recommended media (ATCC). Compounds were added the following day and viability was measured at 72h using the sulforhodamine B (SRB) colorimetric assay as follows. Cells were fixed by replacing media with 1% v/v Trichloroacetic Acid (TCA) (Sigma-Aldrich) at 4°C and incubated for 1h also at 4°C. Wells were washed thoroughly with copious amounts of deionised water before staining with Sulforhodamine B (SRB) (Sigma-Aldrich) solution (0.057% w/v in 1% v/v Acetic Acid (VWR)) for 30 min. Stain was aspirated and wells washed with several changes of 1% v/v Acetic Acid until unbound stain was removed, before air-drying. Bound stain was solubilized with 100μl / well 10mM Tris (pH 8.0) (Trizma Base (121.1) Sigma-Aldrich) with agitation for 10 min. Fluorescence intensity was recorded at Ex540nm / Em590nm using a BMG Pherastar Plus plate reader ([Vichai and Kirtikara, 2006]).

[2] = system: murine pancreatic organoids KRAS WT p53 MUT; assay: Viability of pancreatic organoids (CellTitre Glo 3D), KRAS WT; assay type: cell-based; details: Mus musculus, read-out: Mean GI50
Experimental: Organoid cultures were prepared from the pancreas of LSL-Trp53^R172H/+, Pdx-1-Cre (for Kras WT organoids) or LSL-Trp53^R172H/+, LSL-Kras^G12D/+, Pdx-1-Cre (for Kras^G12D organoids KPC3760 and KPC26684) strains ([Hingorani et al., 2005]). Pancreatic ducts were manually picked after tissue mincing and overnight enzymatic digestion with 0.012% (w/v) collagenase XI (Sigma) and 0.012% (w/v) dispase (GIBCO) in DMEM media containing 1% FBS (GIBCO), before seeding in growth-factor-reduced (GFR) Matrigel (BD) ([Boj et al., 2015]).
Pancreatic organoids were extracted and cultured as detailed above ([Boj et al., 2015]). In brief, pancreatic organoids were seeded at 600 cells per well in a 96 well plate and allowed to grow for 7 days with media replenishment on the 3rd day. Full-grown organoids were then treated with compounds for 72h and viability determined using CellTitre Glo 3D assay (Promega). For viability assays with c-MET siRNA, cells were reverse transfected in a 6 cm dish using Dharmafect 1 (GE Dharmacon) per manufacturer’s instructions. On the following day, cells were trypsinised and plated onto 96 well plates or 6 well plates. The 96 well plates were treated with a dose range of compounds or DMSO, and viability was determined via SRB colorimetric assay. Cells in the 6 well plates were collected at the end of experiment to corroborate knockdown of c-MET by Western blotting.

[3] = HeLa, Figure 5A, read-out: MI EC50 (cellular assay for mitotic arrest)

SMILES | EC50 (HeLa cells; [3]) [µM] | EC50 (HeLa cells; HeLa cells, Figure 5B, read-out: half maximal effective concentration, cellular assay for mitotic arrest) [µM] | IC50 (PBD domain of human PLK2; read-out: IC50, binding of TAMRA-labelled phosphopeptide to PLK2 PBD) [µM] | remaining binding at 5 µM (EIF2AK2; EIF2AK2, Poloppin-II 5µM, hit <35%) [%] | remaining binding at 5 µM (GSG2; GSG2, Poloppin-II 5µM, hit <35%) [%] | binding to the kinase catalytic domains of PLK1–4, or to 51 other related kinases ([1]; Poloppin-II at 5 μM) | GI50 (SW48 KRAS G12D cells; SW48 G12D, 72 hr, Figure 5D, read-out: GI50) [µM] | GI50 ([2]; organoids KRAS WT p53 MUT, n=2) [µM] | EC50, mitotic index assay (HeLa cells; HeLa cells treated for 16 hr, Figure 5B) [µM] | selectivity for PLK1-PBD over PLK2-PBD (PBD domain of human PLK2) [fold] | IC50 (PBD domain of human PLK2; IC50, binding of TAMRA-labelled phosphopeptide to PLK2 PBD) | remaining binding at 50 µM (EIF2AK2) [%] | remaining binding at 50 µM (GSG2) [%] | binding to 51 other protein kinases ([1]; Poloppin at 50μM) | binding to the kinase catalytic domains of PLK1, PLK2, PLK3, PLK4 ([1]; Poloppin at 50μM) | GI50 (SW48 KRAS G12D cells; SW48) [µM] | GI50 [2] [µM]
CN(C)CCNC(=O)c1ccc(-c2ccc(-c3ccc(Cl)cc3)n2-c2ccccc2C(F)(F)F)cc1 [Poloppin-II] | 0.069 | 0.061 | 105 | 90 | 77 | no binding | 0.0115 ± 0.00109 | 102 | – | – | – | – | – | – | – | – | –
O=C(O)CCc1ccc(-c2ccc(Br)cc2)n1-c1ccccc1C(F)(F)F [Poloppin] | 14.1 | – | – | – | – | – | – | – | 14.6 | ~3 | 88.3 µM and 88 µM | 69 | 100 | No significant binding | does not bind | 5.3 ± 1.03 | 119
